# Measurements from paper PMC5218480 (PLoS ONE, 2017).
# Tested on: MV-4-11 cells
# Assay: Gene expression microarray analysis (Affymetrix PrimeView) and GSEA
# Assay type: cell-based, human
# Set-up: RFU PODN (11730768_x_at) / Fold change /veh PODN (11730768_x_at) / RFU LINC00158 (11744669_a_at) / Fold change /veh LINC00158 (11744669_a_at) / RFU DUSP10 (11751237_a_at) / Fold change /veh DUSP10 (11751237_a_at) / RFU ID3 (11757404_x_at) / Fold change /veh ID3 (11757404_x_at) / RFU PLEKHG5 (11737974_s_at) / Fold change /veh PLEKHG5 (11737974_s_at) / RFU LRRC4B (11730491_at) / Fold change /veh LRRC4B (11730491_at) / RFU GIMAP4 (11747438_a_at) / Fold change /veh GIMAP4 (11747438_a_at) / RFU KRT8 (11758183_x_at) / Fold change /veh KRT8 (11758183_x_at) / RFU CNN1 (11734310_a_at) / Fold change /veh CNN1 (11734310_a_at) / RFU VPS37D (11726825_at) / Fold change /veh VPS37D (11726825_at) / RFU C10orf10 (11716522_x_at) / Fold change /veh C10orf10 (11716522_x_at) / RFU KIR2DL2 /// KIR2DL4 /// KIR2DL5A /// KIR2DL5B /// KIR2DS1 /// KIR2DS2 /// KIR2DS3 /// KIR2DS4 /// KIR3DL3 /// KIR3DL3 /// KIR3DS1 (11738374_at) / Fold change /veh KIR2DL2 /// KIR2DL4 /// KIR2DL5A /// KIR2DL5B /// KIR2DS1 /// KIR2DS2 /// KIR2DS3 /// KIR2DS4 /// KIR3DL3 /// KIR3DL3 /// KIR3DS1 (11738374_at) / RFU C1QL1 (11718748_at) / Fold change /veh C1QL1 (11718748_at) / RFU TMPRSS4 (11747572_a_at) / Fold change /veh TMPRSS4 (11747572_a_at) / RFU HAMP (11756126_x_at) / Fold change /veh HAMP (11756126_x_at) / RFU RNFT2 (11725882_a_at) / Fold change /veh RNFT2 (11725882_a_at) / RFU NR4A2 (11747474_a_at) / Fold change /veh NR4A2 (11747474_a_at) / RFU ABCC12 (11746883_a_at) / Fold change /veh ABCC12 (11746883_a_at) / RFU TMEM136 (11760407_x_at) / Fold change /veh TMEM136 (11760407_x_at) / RFU CLDN22 /// WWC2 (11732394_at) / Fold change /veh CLDN22 /// WWC2 (11732394_at) / RFU HLA-DPB1 (11760878_x_at) / Fold change /veh HLA-DPB1 (11760878_x_at) / RFU SPINT1 (11716480_a_at) / Fold change /veh SPINT1 (11716480_a_at) / RFU GAP43 (11754022_s_at) / Fold change /veh GAP43 (11754022_s_at) / RFU A4GNT (11735810_at) / Fold change /veh A4GNT (11735810_at) / RFU PRB3 (11715151_x_at) / Fold change /veh PRB3 (11715151_x_at) / RFU TUBB4B (11761932_at) / Fold change /veh TUBB4B (11761932_at) / RFU CAPN14 (11732068_a_at) / Fold change /veh CAPN14 (11732068_a_at) / RFU TMCC2 (11721928_a_at) / Fold change /veh TMCC2 (11721928_a_at) / RFU IRGQ (11745062_a_at) / Fold change /veh IRGQ (11745062_a_at) / RFU FAM174B (11720279_a_at) / Fold change /veh FAM174B (11720279_a_at) / RFU TMPRSS4 (11748680_a_at) / Fold change /veh TMPRSS4 (11748680_a_at) / RFU FAM212B (11763350_a_at) / Fold change /veh FAM212B (11763350_a_at) / RFU PLEKHG5 (11743358_a_at) / Fold change /veh PLEKHG5 (11743358_a_at) / RFU ZSCAN30 (11745921_a_at) / Fold change /veh ZSCAN30 (11745921_a_at) / RFU CMKLR1 (11741424_a_at) / Fold change /veh CMKLR1 (11741424_a_at) / RFU LOC101060620 /// MAPK8IP1 (11723275_at) / Fold change /veh LOC101060620 /// MAPK8IP1 (11723275_at) / RFU SPTSSB (11747773_x_at) / Fold change /veh SPTSSB (11747773_x_at) / RFU PRSS12 (11739890_at) / Fold change /veh PRSS12 (11739890_at) / RFU BIN1 (11741810_x_at) / Fold change /veh BIN1 (11741810_x_at) / RFU WNT11 (11732464_a_at) / Fold change /veh WNT11 (11732464_a_at) / RFU C10orf10 (11716521_a_at) / Fold change /veh C10orf10 (11716521_a_at) / RFU C5orf56 (11738089_at) / Fold change /veh C5orf56 (11738089_at) / RFU CYB561 (11721691_x_at) / Fold change /veh CYB561 (11721691_x_at) / RFU ANKRD19P (11752326_a_at) / Fold change /veh ANKRD19P (11752326_a_at) / RFU OR2T12 /// OR2T33 /// OR2T8 (11738714_s_at) / Fold change /veh OR2T12 /// OR2T33 /// OR2T8 (11738714_s_at) / RFU VCAN (11748164_a_at) / Fold change /veh VCAN (11748164_a_at) / RFU JSRP1 (11732532_at) / Fold change /veh JSRP1 (11732532_at) / RFU KRTAP10-11 (11738290_x_at) / Fold change /veh KRTAP10-11 (11738290_x_at) / RFU MYO3A (11730013_a_at) / Fold change /veh MYO3A (11730013_a_at) / RFU EBF3 (11725865_a_at) / Fold change /veh EBF3 (11725865_a_at) / RFU CAMK2N1 (11719241_x_at) / Fold change /veh CAMK2N1 (11719241_x_at) / RFU C5orf56 (11738088_a_at) / Fold change /veh C5orf56 (11738088_a_at) / RFU OLFML3 (11715873_a_at) / Fold change /veh OLFML3 (11715873_a_at) / RFU LOC100653217 /// NTM (11731650_a_at) / Fold change /veh LOC100653217 /// NTM (11731650_a_at) / RFU MAPK11 (11762145_a_at) / Fold change /veh MAPK11 (11762145_a_at) / RFU FIZ1 (11724087_x_at) / Fold change /veh FIZ1 (11724087_x_at) / RFU OASL (11726364_x_at) / Fold change /veh OASL (11726364_x_at) / RFU SOX15 (11748057_x_at) / Fold change /veh SOX15 (11748057_x_at) / RFU CD79A (11719716_a_at) / Fold change /veh CD79A (11719716_a_at) / RFU HIST1H1D (11736915_at) / Fold change /veh HIST1H1D (11736915_at) / RFU CASKIN2 (11723855_a_at) / Fold change /veh CASKIN2 (11723855_a_at) / RFU LOC730098 (11760151_x_at) / Fold change /veh LOC730098 (11760151_x_at) / RFU OR4N2 (11742367_at) / Fold change /veh OR4N2 (11742367_at) / RFU PRRT2 (11749266_a_at) / Fold change /veh PRRT2 (11749266_a_at) / RFU SNX32 (11753110_a_at) / Fold change /veh SNX32 (11753110_a_at) / RFU CDHR5 (11726645_a_at) / Fold change /veh CDHR5 (11726645_a_at) / RFU RCAN1 (11760418_a_at) / Fold change /veh RCAN1 (11760418_a_at) / RFU FAM167A (11723789_a_at) / Fold change /veh FAM167A (11723789_a_at) / RFU FAM26E (11764081_at) / Fold change /veh FAM26E (11764081_at) / RFU ISYNA1 (11749810_s_at) / Fold change /veh ISYNA1 (11749810_s_at) / RFU ACY1 (11761880_at) / Fold change /veh ACY1 (11761880_at) / RFU 11764098_at / Fold change /veh 11764098_at / RFU SAMD14 (11745864_x_at) / Fold change /veh SAMD14 (11745864_x_at) / RFU NPB (11741838_a_at) / Fold change /veh NPB (11741838_a_at) / RFU TMPRSS6 (11731388_a_at) / Fold change /veh TMPRSS6 (11731388_a_at) / RFU KRTAP10-2 (11738614_at) / Fold change /veh KRTAP10-2 (11738614_at) / RFU ARHGAP8 /// PRR5-ARHGAP8 (11727945_x_at) / Fold change /veh ARHGAP8 /// PRR5-ARHGAP8 (11727945_x_at) / RFU KRTAP5-7 /// NADSYN1 (11734609_at) / Fold change /veh KRTAP5-7 /// NADSYN1 (11734609_at) / RFU RASL12 (11751679_a_at) / Fold change /veh RASL12 (11751679_a_at) / RFU CDKN2B (11736163_a_at) / Fold change /veh CDKN2B (11736163_a_at) / RFU PRF1 (11729649_at) / Fold change /veh PRF1 (11729649_at) / RFU, ZNF638 /// ZNF638-IT1 / Fold change vs veh, ZNF638 /// ZNF638-IT1 / RFU, PANK3 / Fold change vs veh, PANK3 / RFU, SH3YL1 / Fold change vs veh, SH3YL1 / RFU, ZEB2 / Fold change vs veh, ZEB2 / RFU, NRIP1 / Fold change vs veh, NRIP1 / RFU, PTTG1IP / Fold change vs veh, PTTG1IP / RFU, CAPN2 / Fold change vs veh, CAPN2 / RFU, MED14 / Fold change vs veh, MED14 / RFU, SNORA58 / Fold change vs veh, SNORA58 / RFU, C1orf63 / Fold change vs veh, C1orf63 / RFU, LRRFIP1 / Fold change vs veh, LRRFIP1 / RFU, NDUFAF7 / Fold change vs veh, NDUFAF7 / RFU, SLC12A2 / Fold change vs veh, SLC12A2 / RFU, IBTK / Fold change vs veh, IBTK / RFU, ESF1 / Fold change vs veh, ESF1 / Fold change vs veh, TMEM50B / RFU, TAOK1 / Fold change vs veh, TAOK1 / RFU, ACBD3 / Fold change vs veh, ACBD3 / RFU, TMA16 / Fold change vs veh, TMA16 / RFU, RWDD3 / Fold change vs veh, RWDD3 / RFU, BCAT1 / Fold change vs veh, BCAT1 / RFU, EDEM3 / Fold change vs veh, EDEM3 / RFU, TMEM33 / Fold change vs veh, TMEM33 / RFU, WDR75 / Fold change vs veh, WDR75 / RFU, AHCTF1 / Fold change vs veh, AHCTF1 / RFU, TFRC / Fold change vs veh, TFRC / RFU, ZDHHC17 / Fold change vs veh, ZDHHC17 / RFU, NOM1 / Fold change vs veh, NOM1 / RFU, ARL8B / Fold change vs veh, ARL8B / RFU, ZBTB11 / Fold change vs veh, ZBTB11 / RFU, TAMM41 / Fold change vs veh, TAMM41 / RFU, KIAA1704 /// LOC100996395 / Fold change vs veh, KIAA1704 /// LOC100996395 / RFU, ING1 / Fold change vs veh, ING1 / RFU, TRMT61B / Fold change vs veh, TRMT61B / RFU, FUBP3 / Fold change vs veh, FUBP3 / RFU, TP53 / Fold change vs veh, TP53 / RFU, TNKS2 / Fold change vs veh, TNKS2 / RFU, ZFP14 / Fold change vs veh, ZFP14 / RFU, ACTR2 / Fold change vs veh, ACTR2 / RFU, PPP3R1 / Fold change vs veh, PPP3R1 / RFU, PIK3R1 / Fold change vs veh, PIK3R1 / RFU, HNRNPA1 / Fold change vs veh, HNRNPA1 / RFU, RNF170 / Fold change vs veh, RNF170 / RFU, ZNF28 / Fold change vs veh, ZNF28 / RFU, RNGTT / Fold change vs veh, RNGTT / RFU, OGT / Fold change vs veh, OGT / RFU, BRD1 / Fold change vs veh, BRD1 / RFU, MARS / Fold change vs veh, MARS / RFU, ZNF655 / Fold change vs veh, ZNF655 / RFU, FAHD1 / Fold change vs veh, FAHD1 / RFU, BDP1 / Fold change vs veh, BDP1 / RFU, LRRCC1 / Fold change vs veh, LRRCC1 / RFU, ARID1A / Fold change vs veh, ARID1A / RFU, ZNF146 / Fold change vs veh, ZNF146 / RFU, ZNF330 / Fold change vs veh, ZNF330 / RFU, GPN3 / Fold change vs veh, GPN3 / RFU, C9orf123 / Fold change vs veh, C9orf123 / RFU, N4BP2L2 / Fold change vs veh, N4BP2L2 / RFU, ARFIP1 / Fold change vs veh, ARFIP1 / RFU, FAM179B / Fold change vs veh, FAM179B / RFU, BCL10 / Fold change vs veh, BCL10 / RFU, UHRF1BP1L / Fold change vs veh, UHRF1BP1L / RFU, BET1 / Fold change vs veh, BET1 / RFU, CNOT2 / Fold change vs veh, CNOT2 / RFU, ZNF268 / Fold change vs veh, ZNF268 / Fold change vs veh, ZNF507 / RFU, DGCR2 / Fold change vs veh, DGCR2 / RFU, WDSUB1 / Fold change vs veh, WDSUB1 / Fold change vs veh, HSP90B1 /// MIR3652 / RFU, ADSS / Fold change vs veh, ADSS / RFU, GK / Fold change vs veh, GK / RFU, ZNF148 / Fold change vs veh, ZNF148 / RFU, TAF9 / Fold change vs veh, TAF9 / RFU, SLC1A5 / Fold change vs veh, SLC1A5 / RFU, SLMO2 / Fold change vs veh, SLMO2 / RFU, ABCC4 / Fold change vs veh, ABCC4 / RFU, LOC101060439 /// RAP1B / Fold change vs veh, LOC101060439 /// RAP1B / RFU, RFX7 / Fold change vs veh, RFX7 / RFU, GTPBP10 / Fold change vs veh, GTPBP10 / RFU, CNEP1R1 / Fold change vs veh, CNEP1R1 / RFU, BIVM-ERCC5 /// ERCC5 / Fold change vs veh, BIVM-ERCC5 /// ERCC5 / RFU, ILF3 / Fold change vs veh, ILF3 / RFU 11762660_at / Fold change /veh 11762660_at / RFU VCAN (11757783_s_at) / Fold change /veh VCAN (11757783_s_at) / RFU DDX43 (11728927_at) / Fold change /veh DDX43 (11728927_at) / RFU KRT8 (11758188_x_at) / Fold change /veh KRT8 (11758188_x_at) / RFU NKD1 (11759106_at) / Fold change /veh NKD1 (11759106_at) / RFU SRD5A1 (11742802_a_at) / Fold change /veh SRD5A1 (11742802_a_at) / RFU TPSAB1 /// TPSB2 (11721975_s_at) / Fold change /veh TPSAB1 /// TPSB2 (11721975_s_at) / RFU GSTM3 (11746129_a_at) / Fold change /veh GSTM3 (11746129_a_at) / RFU IL23R (11737362_x_at) / Fold change /veh IL23R (11737362_x_at) / RFU TMEM51 (11727254_a_at) / Fold change /veh TMEM51 (11727254_a_at) / RFU PIWIL2 (11732686_x_at) / Fold change /veh PIWIL2 (11732686_x_at) / RFU ORM1 (11744905_x_at) / Fold change /veh ORM1 (11744905_x_at) / RFU CCDC152 (11743942_at) / Fold change /veh CCDC152 (11743942_at) / RFU ECM1 (11717891_a_at) / Fold change /veh ECM1 (11717891_a_at) / RFU IL23R (11748794_a_at) / Fold change /veh IL23R (11748794_a_at) / RFU TNFAIP8L3 (11732012_x_at) / Fold change /veh TNFAIP8L3 (11732012_x_at) / RFU MBOAT4 (11741988_at) / Fold change /veh MBOAT4 (11741988_at) / RFU 11764193_at / Fold change /veh 11764193_at / RFU TMEM53 (11763286_at) / Fold change /veh TMEM53 (11763286_at) / RFU MAGEB2 (11727129_at) / Fold change /veh MAGEB2 (11727129_at) / RFU TMEM200A (11744735_a_at) / Fold change /veh TMEM200A (11744735_a_at) / RFU CCDC152 (11751479_a_at) / Fold change /veh CCDC152 (11751479_a_at) / RFU FAM211A (11726209_a_at) / Fold change /veh FAM211A (11726209_a_at) / RFU RGS16 (11746705_a_at) / Fold change /veh RGS16 (11746705_a_at) / RFU VCAN (11755009_s_at) / Fold change /veh VCAN (11755009_s_at) / RFU RHOB (11743442_s_at) / Fold change /veh RHOB (11743442_s_at) / RFU RGS16 (11720943_a_at) / Fold change /veh RGS16 (11720943_a_at) / RFU RGS16 (11720944_at) / Fold change /veh RGS16 (11720944_at) / RFU, VPS4B / Fold change vs veh, VPS4B / RFU, CREB1 / Fold change vs veh, CREB1 / RFU, DNAJC13 / Fold change vs veh, DNAJC13 / RFU, GNAQ / Fold change vs veh, GNAQ / RFU, CDK5R1 / Fold change vs veh, CDK5R1 / RFU, ZRANB3 / Fold change vs veh, ZRANB3 / RFU, CUL4A / Fold change vs veh, CUL4A / RFU, CCNY / Fold change vs veh, CCNY / RFU, UFL1 / Fold change vs veh, UFL1 / RFU, COG3 / Fold change vs veh, COG3 / RFU, DIAPH2 / Fold change vs veh, DIAPH2 / RFU, SKA2 / Fold change vs veh, SKA2 / RFU, AFF3 / Fold change vs veh, AFF3 / RFU, LMF1 / Fold change vs veh, LMF1 / RFU, IPO11 / Fold change vs veh, IPO11 / RFU, DFFB / Fold change vs veh, DFFB / RFU, FOXP1 / Fold change vs veh, FOXP1 / RFU, CARD8 / Fold change vs veh, CARD8 / RFU, STRN3 / Fold change vs veh, STRN3 / RFU, ADK / Fold change vs veh, ADK / RFU, RASSF2 / Fold change vs veh, RASSF2 / RFU, WIPF1 / Fold change vs veh, WIPF1 / RFU, LARP1B / Fold change vs veh, LARP1B / RFU, RASA1 / Fold change vs veh, RASA1 / RFU, RB1 / Fold change vs veh, RB1 / RFU, PPFIA1 / Fold change vs veh, PPFIA1 / RFU, MAT2A / Fold change vs veh, MAT2A / RFU, CCT5 / Fold change vs veh, CCT5 / RFU, WDR92 / Fold change vs veh, WDR92 / RFU, CUX1 / Fold change vs veh, CUX1 / RFU, TTC7A / Fold change vs veh, TTC7A / RFU, TMEM135 / Fold change vs veh, TMEM135 / RFU, DEPTOR / Fold change vs veh, DEPTOR / RFU, CPM / Fold change vs veh, CPM / RFU, DNAJB6 / Fold change vs veh, DNAJB6 / RFU, CACNA2D3 / Fold change vs veh, CACNA2D3 / RFU, DTX4 / Fold change vs veh, DTX4 / RFU, TFCP2 / Fold change vs veh, TFCP2 / RFU, GMCL1 /// GMCL1P1 / Fold change vs veh, GMCL1 /// GMCL1P1 / RFU, AEBP2 / Fold change vs veh, AEBP2 / RFU, SNHG1 /// SNORD22 /// SNORD25 /// SNORD26 /// SNORD27 /// SNORD28 /// SNORD29 /// SNORD31 / Fold change vs veh, SNHG1 /// SNORD22 /// SNORD25 /// SNORD26 /// SNORD27 /// SNORD28 /// SNORD29 /// SNORD31 / Fold change (Aza/veh), C12orf56 (ProbeSet 11735607_a_at) / Fold change (ACY-1035/veh), C12orf56 (ProbeSet 11735607_a_at) / Fold change (Aza/veh), FGFR1OP (ProbeSet 11751329_s_at) / Fold change (ACY-1035/veh), FGFR1OP (ProbeSet 11751329_s_at) / Fold change (Aza/veh), VPS36 (ProbeSet 11739960_a_at) / Fold change (ACY-1035/veh), VPS36 (ProbeSet 11739960_a_at) / RFU SYPL1 (11715823_x_at) / Fold change /veh SYPL1 (11715823_x_at) / RFU IGFBP7 (11715501_s_at) / Fold change /veh IGFBP7 (11715501_s_at) / RFU REEP3 (11722064_at) / Fold change /veh REEP3 (11722064_at) / RFU IGLL1 (11728026_x_at) / Fold change /veh IGLL1 (11728026_x_at): dose or concentration left out as unconfirmed
# Details: ProbeSet 11719493_s_at; LIST B
structure (smiles),measurement,value
Nc1ccc(-c2cccs2)cc1NC(=O)c1ccc2c(c1)cc(C1CC1)n2CCN1CCOCC1 [ACY-1035],"RFU, TAF9",511.51 RFU
